Measured values reported in ChEMBL document CHEMBL3991601, “The target landscape of clinical kinase drugs” (Science, 2017).
The source made the active and inactive calls. Cut-off read from the data, not from the text of the source, for most assays here: actives have a measured Kd and inactives only a lower limit.

What was measured:
[1] = target: Ribosomal protein S6 kinase alpha-4 (Homo sapiens, UniProt O75676)
[2] = target: T1, MAP kinase-activated protein kinase 5 (Homo sapiens, UniProt Q8IW41)
T1 sequence (Q8IW41 whole entry): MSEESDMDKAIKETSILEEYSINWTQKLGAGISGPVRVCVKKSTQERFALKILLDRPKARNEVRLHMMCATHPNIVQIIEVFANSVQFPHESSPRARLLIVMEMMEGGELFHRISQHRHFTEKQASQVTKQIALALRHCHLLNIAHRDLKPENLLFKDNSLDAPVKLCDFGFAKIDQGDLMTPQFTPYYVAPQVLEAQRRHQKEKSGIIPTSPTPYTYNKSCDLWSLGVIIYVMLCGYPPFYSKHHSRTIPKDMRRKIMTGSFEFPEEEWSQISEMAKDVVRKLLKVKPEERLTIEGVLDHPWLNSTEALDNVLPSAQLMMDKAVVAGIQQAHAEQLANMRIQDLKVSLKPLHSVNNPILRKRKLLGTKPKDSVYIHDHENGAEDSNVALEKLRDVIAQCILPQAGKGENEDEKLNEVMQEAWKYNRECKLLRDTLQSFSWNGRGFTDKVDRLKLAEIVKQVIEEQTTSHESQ

[3] = target: T2, Receptor-type tyrosine-protein kinase FLT3 (Homo sapiens, UniProt P36888)
T2 sequence (P36888 whole entry): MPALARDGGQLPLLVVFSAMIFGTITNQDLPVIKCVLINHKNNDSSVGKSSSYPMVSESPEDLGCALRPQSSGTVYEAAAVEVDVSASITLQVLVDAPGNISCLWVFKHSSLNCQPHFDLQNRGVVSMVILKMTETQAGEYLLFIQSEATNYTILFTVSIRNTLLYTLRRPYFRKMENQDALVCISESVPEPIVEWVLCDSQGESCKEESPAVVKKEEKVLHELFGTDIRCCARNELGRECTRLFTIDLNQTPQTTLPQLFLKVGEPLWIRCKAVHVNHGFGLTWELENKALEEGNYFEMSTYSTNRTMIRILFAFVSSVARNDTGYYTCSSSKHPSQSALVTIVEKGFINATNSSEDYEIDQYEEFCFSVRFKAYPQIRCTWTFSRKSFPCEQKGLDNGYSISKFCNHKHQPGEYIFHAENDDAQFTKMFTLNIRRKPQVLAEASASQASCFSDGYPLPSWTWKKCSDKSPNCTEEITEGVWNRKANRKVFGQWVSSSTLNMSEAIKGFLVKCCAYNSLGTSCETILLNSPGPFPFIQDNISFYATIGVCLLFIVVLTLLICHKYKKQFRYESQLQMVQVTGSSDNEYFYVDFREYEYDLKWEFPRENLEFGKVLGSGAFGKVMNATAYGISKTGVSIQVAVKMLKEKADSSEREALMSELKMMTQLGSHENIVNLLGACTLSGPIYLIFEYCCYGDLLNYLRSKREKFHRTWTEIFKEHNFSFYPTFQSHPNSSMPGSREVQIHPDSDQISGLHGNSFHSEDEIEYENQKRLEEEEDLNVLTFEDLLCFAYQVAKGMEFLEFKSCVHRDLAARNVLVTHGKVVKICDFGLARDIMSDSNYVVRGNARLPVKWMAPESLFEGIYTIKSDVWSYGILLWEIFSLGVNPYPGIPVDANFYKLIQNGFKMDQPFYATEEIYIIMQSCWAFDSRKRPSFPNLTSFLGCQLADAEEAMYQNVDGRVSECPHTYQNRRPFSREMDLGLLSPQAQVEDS

[4] = target: Mitogen-activated protein kinase 7 (Homo sapiens, UniProt Q13164)
[5] = target: Protein kinase C alpha type (Homo sapiens, UniProt P17252)
[6] = target: T3, MAP/microtubule affinity-regulating kinase 4 (Homo sapiens, UniProt Q96L34)
T3 sequence (Q96L34 whole entry): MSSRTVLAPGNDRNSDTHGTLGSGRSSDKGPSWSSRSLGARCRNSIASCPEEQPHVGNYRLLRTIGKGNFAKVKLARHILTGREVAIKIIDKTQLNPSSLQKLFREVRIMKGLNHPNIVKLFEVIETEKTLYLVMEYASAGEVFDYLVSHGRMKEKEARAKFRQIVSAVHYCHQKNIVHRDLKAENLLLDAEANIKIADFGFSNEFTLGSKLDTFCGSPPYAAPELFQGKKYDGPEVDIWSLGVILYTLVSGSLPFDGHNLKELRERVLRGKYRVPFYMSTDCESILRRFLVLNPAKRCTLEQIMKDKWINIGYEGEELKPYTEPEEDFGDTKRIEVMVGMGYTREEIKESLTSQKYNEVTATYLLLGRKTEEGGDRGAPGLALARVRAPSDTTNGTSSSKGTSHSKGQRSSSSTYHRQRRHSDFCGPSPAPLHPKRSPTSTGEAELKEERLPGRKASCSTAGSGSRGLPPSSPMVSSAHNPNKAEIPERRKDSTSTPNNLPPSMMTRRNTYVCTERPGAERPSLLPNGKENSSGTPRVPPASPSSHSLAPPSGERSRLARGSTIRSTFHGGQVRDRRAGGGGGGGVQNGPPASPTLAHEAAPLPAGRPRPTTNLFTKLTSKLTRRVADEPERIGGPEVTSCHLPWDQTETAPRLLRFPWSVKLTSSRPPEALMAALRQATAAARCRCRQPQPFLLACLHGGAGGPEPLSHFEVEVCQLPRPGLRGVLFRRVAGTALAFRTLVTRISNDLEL

[7] = target: T4, Signal recognition particle receptor subunit alpha (Homo sapiens, UniProt P08240)
T4 sequence (P08240 whole entry): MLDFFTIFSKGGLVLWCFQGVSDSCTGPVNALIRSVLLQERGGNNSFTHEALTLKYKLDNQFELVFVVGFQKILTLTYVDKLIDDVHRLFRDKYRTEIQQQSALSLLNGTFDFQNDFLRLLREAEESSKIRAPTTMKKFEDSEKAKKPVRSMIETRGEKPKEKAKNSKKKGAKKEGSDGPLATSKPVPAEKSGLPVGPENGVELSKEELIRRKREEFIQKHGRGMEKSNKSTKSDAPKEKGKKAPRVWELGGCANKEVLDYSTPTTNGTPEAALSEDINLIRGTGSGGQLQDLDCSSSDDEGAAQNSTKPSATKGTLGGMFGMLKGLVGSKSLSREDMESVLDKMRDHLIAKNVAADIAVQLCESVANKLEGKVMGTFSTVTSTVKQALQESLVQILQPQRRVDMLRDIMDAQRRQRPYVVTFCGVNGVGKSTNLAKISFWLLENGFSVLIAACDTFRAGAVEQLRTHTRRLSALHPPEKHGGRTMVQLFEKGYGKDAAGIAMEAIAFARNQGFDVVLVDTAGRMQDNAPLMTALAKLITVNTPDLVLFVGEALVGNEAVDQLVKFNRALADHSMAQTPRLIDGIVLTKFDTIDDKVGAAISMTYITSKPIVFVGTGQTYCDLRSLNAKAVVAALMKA
Note: in the data inactive means no Kd found up to 30 µM.

Sequence of Ribosomal protein S6 kinase alpha-4 (O75676 whole entry): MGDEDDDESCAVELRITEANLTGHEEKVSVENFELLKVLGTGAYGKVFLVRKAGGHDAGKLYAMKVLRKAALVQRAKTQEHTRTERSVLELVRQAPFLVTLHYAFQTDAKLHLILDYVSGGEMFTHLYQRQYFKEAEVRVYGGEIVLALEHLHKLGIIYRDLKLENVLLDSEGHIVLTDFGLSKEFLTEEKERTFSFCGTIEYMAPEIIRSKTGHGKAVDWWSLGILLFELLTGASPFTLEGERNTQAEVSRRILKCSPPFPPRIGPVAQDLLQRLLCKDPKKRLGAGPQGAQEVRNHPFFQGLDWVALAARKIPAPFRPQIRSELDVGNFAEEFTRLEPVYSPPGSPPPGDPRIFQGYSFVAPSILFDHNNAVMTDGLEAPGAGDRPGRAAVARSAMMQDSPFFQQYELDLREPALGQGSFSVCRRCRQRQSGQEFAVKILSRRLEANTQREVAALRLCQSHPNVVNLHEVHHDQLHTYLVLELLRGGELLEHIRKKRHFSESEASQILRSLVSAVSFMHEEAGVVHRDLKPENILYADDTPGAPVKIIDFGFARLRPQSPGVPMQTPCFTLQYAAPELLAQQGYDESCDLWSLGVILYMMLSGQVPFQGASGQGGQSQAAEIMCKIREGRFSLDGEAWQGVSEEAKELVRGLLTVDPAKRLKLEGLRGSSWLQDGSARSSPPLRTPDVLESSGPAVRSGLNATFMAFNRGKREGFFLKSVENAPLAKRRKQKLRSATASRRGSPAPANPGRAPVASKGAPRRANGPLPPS
Sequence of Mitogen-activated protein kinase 7 (Q13164 whole entry): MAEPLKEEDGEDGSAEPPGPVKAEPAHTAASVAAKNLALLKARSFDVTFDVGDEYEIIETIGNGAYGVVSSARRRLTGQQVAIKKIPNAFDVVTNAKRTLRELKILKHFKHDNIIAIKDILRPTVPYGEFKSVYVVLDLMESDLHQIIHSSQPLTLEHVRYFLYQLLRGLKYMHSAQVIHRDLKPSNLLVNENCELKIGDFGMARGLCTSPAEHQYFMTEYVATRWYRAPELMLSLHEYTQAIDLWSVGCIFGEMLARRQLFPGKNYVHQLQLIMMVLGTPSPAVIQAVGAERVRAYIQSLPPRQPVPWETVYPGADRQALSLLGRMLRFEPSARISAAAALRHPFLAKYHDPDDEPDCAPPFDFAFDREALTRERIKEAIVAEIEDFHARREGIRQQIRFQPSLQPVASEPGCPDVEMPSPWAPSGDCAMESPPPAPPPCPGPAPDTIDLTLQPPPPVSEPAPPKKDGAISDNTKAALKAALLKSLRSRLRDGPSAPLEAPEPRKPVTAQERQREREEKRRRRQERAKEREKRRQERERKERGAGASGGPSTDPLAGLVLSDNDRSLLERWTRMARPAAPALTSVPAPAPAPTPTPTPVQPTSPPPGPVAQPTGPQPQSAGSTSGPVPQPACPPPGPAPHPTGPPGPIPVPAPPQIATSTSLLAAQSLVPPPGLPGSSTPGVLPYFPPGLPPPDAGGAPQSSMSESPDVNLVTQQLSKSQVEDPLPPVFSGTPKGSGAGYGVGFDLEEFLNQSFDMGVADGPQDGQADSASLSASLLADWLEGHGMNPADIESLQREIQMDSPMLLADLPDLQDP

Kd [1]	Kd [2]	Kd [3]	Kd [4]	Kd [5]	Kd [6]	Kd [7]	Compound
> 30 µM (inactive)	> 30 µM (inactive)	> 30 µM (inactive)	> 30 µM (inactive)	21.4 µM (active)	> 30 µM (inactive)	–	Cn1ncc(Cl)c1-c1cc(C(=O)N[C@H](CN)Cc2cccc(F)c2)sc1Cl [AFURESERTIB]
> 30 µM (inactive)	> 30 µM (inactive)	> 30 µM (inactive)	> 30 µM (inactive)	> 30 µM (inactive)	> 30 µM (inactive)	–	CCCS(=O)(=O)Nc1ccc(F)c(C(=O)c2c[nH]c3ncc(-c4ccc(Cl)cc4)cc23)c1F [VEMURAFENIB]
> 30 µM (inactive)	> 30 µM (inactive)	> 30 µM (inactive)	> 30 µM (inactive)	> 30 µM (inactive)	> 30 µM (inactive)	> 30 µM (inactive)	CC[C@H](Nc1ncnc2[nH]cnc12)c1nc2cccc(F)c2c(=O)n1-c1ccccc1 [IDELALISIB]
> 30 µM (inactive)	> 30 µM (inactive)	> 30 µM (inactive)	> 30 µM (inactive)	> 30 µM (inactive)	> 30 µM (inactive)	> 30 µM (inactive)	O=C(O)[C@]1(Cc2cccc(Nc3nccs3)n2)CC[C@@H](Oc2cccc(Cl)c2F)CC1 [MK-5108]
> 30 µM (inactive)	> 30 µM (inactive)	> 30 µM (inactive)	> 30 µM (inactive)	> 30 µM (inactive)	> 30 µM (inactive)	> 30 µM (inactive)	CC(=O)Nc1cccc(-n2c(=O)n(C3CC3)c(=O)c3c(Nc4ccc(I)cc4F)n(C)c(=O)c(C)c32)c1 [TRAMETINIB]
> 30 µM (inactive)	> 30 µM (inactive)	> 30 µM (inactive)	> 30 µM (inactive)	> 30 µM (inactive)	–	> 30 µM (inactive)	CC(C)Nc1cc(-c2c[nH]c(C(=O)N[C@H](CO)c3cccc(Cl)c3)c2)c(Cl)cn1 [ULIXERTINIB]
> 30 µM (inactive)	> 30 µM (inactive)	> 30 µM (inactive)	> 30 µM (inactive)	> 30 µM (inactive)	> 30 µM (inactive)	–	CNC(=O)CN1CCC(Oc2cc3c(Nc4cccc(Cl)c4F)ncnc3cc2OC)CC1 [SAPITINIB]
> 30 µM (inactive)	> 30 µM (inactive)	> 30 µM (inactive)	–	> 30 µM (inactive)	–	> 30 µM (inactive)	N[C@@H]1CCCN(c2c(/C=C3\SC(=O)NC3=O)cccc2-c2ccccc2)C1

Second part, the compound before the results:

Compound	Kd [1]	Kd [2]	Kd [3]	Kd [4]	Kd [5]	Kd [6]	Kd [7]
COC(=O)N[C@@H](C)CNc1nccc(-c2cn(C(C)C)nc2-c2cc(Cl)cc(NS(C)(=O)=O)c2F)n1 [ENCORAFENIB]	> 30 µM (inactive)	> 30 µM (inactive)	> 30 µM (inactive)	> 30 µM (inactive)	> 30 µM (inactive)	> 30 µM (inactive)	> 30 µM (inactive)
Cc1cc(-c2cc(O)ccc2Cl)cc2nnc(Nc3ccc(OCCN4CCCC4)cc3)nc12	> 30 µM (inactive)	> 30 µM (inactive)	> 30 µM (inactive)	> 30 µM (inactive)	> 30 µM (inactive)	> 30 µM (inactive)	> 30 µM (inactive)
CCN1CCN(Cc2ccc(-c3cc4c(N[C@H](C)c5ccccc5)ncnc4[nH]3)cc2)CC1 [AEE-788]	> 30 µM (inactive)	> 30 µM (inactive)	> 30 µM (inactive)	> 30 µM (inactive)	> 30 µM (inactive)	> 30 µM (inactive)	> 30 µM (inactive)
CNS(=O)(=O)Nc1nccc(Cc2c(C)c3ccc(Oc4ncccn4)cc3oc2=O)c1F [AVUTOMETINIB]	> 30 µM (inactive)	> 30 µM (inactive)	> 30 µM (inactive)	> 30 µM (inactive)	> 30 µM (inactive)	> 30 µM (inactive)	> 30 µM (inactive)
C[C@@H](Nc1cc(F)cc(F)c1)c1cc(C(=O)N(C)C)cc2c(=O)cc(N3CCOCC3)oc12 [AZD-8186]	> 30 µM (inactive)	> 30 µM (inactive)	> 30 µM (inactive)	> 30 µM (inactive)	> 30 µM (inactive)	> 30 µM (inactive)	> 30 µM (inactive)
CN1N=C(N)c2cn([C@@H]3O[C@H](COP(=O)(O)O)[C@@H](O)[C@H]3O)c3ncnc1c23 [TRICIRIBINE PHOSPHATE]	> 30 µM (inactive)	> 30 µM (inactive)	> 30 µM (inactive)	> 30 µM (inactive)	> 30 µM (inactive)	> 30 µM (inactive)	> 30 µM (inactive)
O=c1sn(-c2cccc3ccccc23)c(=O)n1Cc1ccccc1 [TIDEGLUSIB]	> 30 µM (inactive)	> 30 µM (inactive)	> 30 µM (inactive)	> 30 µM (inactive)	> 30 µM (inactive)	> 30 µM (inactive)	> 30 µM (inactive)
CNC(=O)c1ccc(C)c(-n2c(C)cc(OCc3ccc(F)cc3F)c(Br)c2=O)c1 [PH-797804]	> 30 µM (inactive)	> 30 µM (inactive)	> 30 µM (inactive)	> 30 µM (inactive)	> 30 µM (inactive)	> 30 µM (inactive)	–
CCS(=O)(=O)N1CC(CC#N)(n2cc(-c3ncnc4[nH]ccc34)cn2)C1 [BARICITINIB]	> 30 µM (inactive)	> 30 µM (inactive)	> 30 µM (inactive)	> 30 µM (inactive)	2.07 µM (active)	–	> 30 µM (inactive)
C[C@@H](c1ccc2nccn2c1)n1nnc2ncc(-c3cnn(C)c3)nc21 [SAVOLITINIB]	> 30 µM (inactive)	> 30 µM (inactive)	> 30 µM (inactive)	> 30 µM (inactive)	> 30 µM (inactive)	–	> 30 µM (inactive)
